Reference: US10562914B2, “Imidazoles as histone demethylase inhibitors” (Istituto Europeo di Oncologia S.r.l., priority 2016, dated 2020)
Structures can show the parent of a compound that is named as a salt.

Experiments:
[1] = target: T1, human recombinant KDM1A/CoREST protein (Homo sapiens, UniProt O60341); test: Assay of enzyme inhibition of KDM1A (LSD1), TR-FRET; format: biochemical; details: 0.25 nM KDM1A/CoREST, 50 nM H3K4 monomethylated peptide, 20 min at RT
T1 construct: made in house; host or cells: E. coli
Experimental: 2.1 Assay of Enzyme Inhibition of KDM1A (LSD1)
The intensity of the light emission is proportional to the level of biotinylated reaction product. The complex of human recombinant KDM1A/CoREST protein was produced in E. coli as separate proteins and co-purified as previously described.
Demethylase reaction was started by the addition of 50 nM histone H3K4 monomethylated.
The resulting mixture was incubated in the dark for 1 h at RT. Then, TR-FRET signal was read by a fluorimeter (Infinite® F200, Tecan, Männedorf, Swirzerland) (Excitation 320 nm, Emission 665 nm and 620 nm, delay time 50 μs, window time 100 μs).
The inhibitor concentrations ranged from 0.025 to 500 μM (serial 1:3 dilutions). The IC50 was calculated using GraphPad Software.

human leukemia NB4 cells = test: Cell growth, CellTiter-Fluor viability assay, NB4; format: cell-based; details: NB-4, 48 h incubation, read-out: IC50 against human leukemia NB4 cells
Source text: (§1) CellTiter-Flor® (Promega) is as a nonlytic, single-reagent-addition fluorescence assay that measures the relative number of living cells in a culture population after experimental manipulation. The CellTiter-Fluor™ Cell Viability Assay measures the conserved and constitutive protease activity within live cells and therefore acts as a marker for cell viability.
(§2) Human leukemia MV4-11 cells, (obtained from the Deutsche Sammlung von Mikroorganismen und Zellkulturen, ACC 102) or NB4 cells, (obtained from the Deutsche Sammlung von Mikroorganismen und Zellkulturen) in exponential growth, were incubated for 48 h with different concentrations of the inhibitors. After 48 h a volume of CellTiter-Fluor® Reagent equal to one fifth of volume of cell culture medium was added. The content was mixed and incubates for at least 90 min at 37° C. degree to obtain a stable signal. The fluorescence was recorded using an excitation wavelength of 360 nm and an emission at 535 nm. The IC50 was calculated using GraphPad Software.

[2] = system: Human leukemia MV4-11 cells; test: Cell growth, CellTiter-Fluor viability assay, MV4-11; format: cell-based; details: 48 h incubation, read-out: IC50 against human leukemia MV4-11 cells
Source text: as §1, §2

SMILES	IC50 [1] [µM]	IC50 (human leukemia NB4 cells) [µM]	IC50 [2] [µM]
CCc1[nH]c(-c2cc3sccc3n2C)nc1-c1ccccc1 [Example 9, 5-(5-ethyl-4-phenyl-1H-imidazol-2-yl)-4-methyl-thieno[3,2-b]pyrrole]	< 1	–	–
CC(C)c1[nH]c(-c2cc3sccc3n2C)nc1-c1ccccc1 [Example 10, 5-(5-isopropyl-4-phenyl-1H-imidazol-2-yl)-4-methyl-thieno[3,2-b]pyrrole]	< 1	–	–
CCn1c(-c2nc(C3CCC3)c[nH]2)cc2sccc21 [Example 12, 5-(4-cyclobutyl-1H-imidazol-2-yl)-4-ethyl-thieno[3,2-b]pyrrole]	< 1	–	–
CCc1cn(CCOc2cccc(OC3CCNCC3)c2)c(-c2cc3sccc3n2C)n1 [Example 18, 5-[4-ethyl-1-[2-[3-(4-piperidyloxy)phenoxy]ethyl]imidazol-2-yl]-4-methyl-thieno[3,2-b]pyrrole hydrochloride]	< 0.1	< 20	< 10
CCc1cn(CCOc2ccc(OC3CCNCC3)cc2)c(-c2cc3sccc3n2C)n1 [Example 20, 5-[4-ethyl-1-[2-[4-(4-piperidyloxy)phenoxy]ethyl]imidazol-2-yl]-4-methyl-thieno[3,2-b]pyrrole hydrochloride]	–	< 20	< 10
CCc1cn(CCOc2ccc(OC3CCCNCC3)cc2)c(-c2cc3sccc3n2C)n1 (stereo not shown) [Example 25, 5-[1-[2-[4-(azepan-4-yloxy)phenoxy]ethyl]-4-ethyl-imidazol-2-yl]-4-methyl-thieno[3,2-b]pyrrole hydrochloride]	–	< 20	< 10
CCc1cn(CCCc2ccc(OC3CCNCC3)cc2)c(-c2cc3sccc3n2C)n1 [Example 27, 5-[4-ethyl-1-[3-[4-(4-piperidyloxy)phenyl]propyl]imidazol-2-yl]-4-methyl-thieno[3,2-b]pyrrole hydrochloride]	–	< 20	< 10
Cn1c(-c2nc(C3CCC3)cn2CCOc2ccc(OC3CCNCC3)cc2)cc2sccc21 [Example 29, 5-[4-cyclobutyl-1-[2-[4-(4-piperidyloxy)phenoxy]ethyl]imidazol-2-yl]-4-methyl-thieno[3,2-b]pyrrole hydrochloride]	–	< 20	< 10
CCc1cn(CCOc2cccc(OC3CCCNCC3)c2)c(-c2cc3sccc3n2C)n1 (stereo not shown) [Example 34, 5-[1-[2-[3-(azepan-4-yloxy)phenoxy]ethyl]-4-ethyl-imidazol-2-yl]-4-methyl-thieno[3,2-b]pyrrole hydrochloride]	< 0.1	–	–
CCc1cnc(-c2cc3sccc3n2C)n1CCOc1cccc(OC2CCCNCC2)c1 (stereo not shown) [Example 35, 5-[1-[2-[3-(azepan-4-yloxy)phenoxy]ethyl]-5-ethyl-imidazol-2-yl]-4-methyl-thieno[3,2-b]pyrrole hydrochloride]	< 0.1	–	–
Cn1c(-c2ncc(C3CCC3)n2CCOc2ccc(OC3CCCNCC3)cc2)cc2sccc21 (stereo not shown) [Example 37, 5-[1-[2-[4-(azepan-4-yloxy)phenoxy]ethyl]-5-cyclobutyl-imidazol-2-yl]-4-methyl-thieno[3,2-b]pyrrole]	< 0.1	–	–
CCc1cn(CCOc2ccc(OC3CCNCC3)cc2)c(-c2cc3ccsc3n2C)n1 [Example 39, 5-[4-ethyl-1-[2-[4-(4-piperidyloxy)phenoxy]ethyl]imidazol-2-yl]-6-methyl-thieno[2,3-b]pyrrole]	< 0.1	< 10	–
CCCc1nc(-c2cc3sccc3n2C)n(CCOc2ccc(OC3CCNCC3)cc2)c1-c1ccccc1 [Example 40, 4-methyl-5-[5-phenyl-1-[2-[4-(4-piperidyloxy)phenoxy]ethyl]-4-propyl-imidazol-2-yl]thieno[3,2-b]pyrrole hydrochloride]	< 0.1	< 10	–
CCCc1c(-c2ccccc2)nc(-c2cc3sccc3n2C)n1CCOc1ccc(OC2CCNCC2)cc1 [Example 41, 4-methyl-5-[4-phenyl-1-[2-[4-(4-piperidyloxy)phenoxy]ethyl]-5-propyl-imidazol-2-yl]thieno[3,2-b]pyrrole]	< 0.1	< 10	–
CCc1cn(CCCc2ccc(OCC3CCNCC3)cc2)c(-c2cc3sccc3n2C)n1 [Example 42, 5-[4-ethyl-1-[3-[4-(4-piperidylmethoxy)phenyl]propyl]imidazol-2-yl]-4-methyl-thieno[3,2-b]pyrrole hydrochloride]	–	< 10	–
CCc1cnc(-c2cc3sccc3n2C)n1CCCc1ccc(OCC2CCNCC2)cc1 [Example 43, 5-[5-ethyl-1-[3-[4-(4-piperidylmethoxy)phenyl]propyl]imidazol-2-yl]-4-methyl-thieno[3,2-b]pyrrole]	< 0.1	< 10	–
CCc1cn(CCCc2ccc(OC3CCCNCC3)cc2)c(-c2cc3sccc3n2C)n1 (stereo not shown) [Example 44, 5-[1-[3-[4-(azepan-4-yloxy)phenyl]propyl]-4-ethyl-imidazol-2-yl]-4-methyl-thieno[3,2-b]pyrrole hydrochloride]	–	< 10	–
CCc1cnc(-c2cc3sccc3n2C)n1CCCc1ccc(OC2CCCNCC2)cc1 (stereo not shown) [Example 45, 5-[1-[3-[4-(azepan-4-yloxy)phenyl]propyl]-5-ethyl-imidazol-2-yl]-4-methyl-thieno[3,2-b]pyrrole hydrochloride]	< 0.1	< 10	–
CCc1c(-c2ccccc2)nc(-c2cc3sccc3n2C)n1CCCc1ccc(OC2CCNCC2)cc1 [Example 46, 5-[5-ethyl-4-phenyl-1-[3-[4-(4-piperidyloxy)phenyl]propyl]imidazol-2-yl]-4-methyl-thieno[3,2-b]pyrrole hydrochloride]	< 0.1	< 10	–
CCc1nc(-c2cc3sccc3n2C)n(CCCc2ccc(OC3CCNCC3)cc2)c1-c1ccccc1 [Example 47, 5-[4-ethyl-5-phenyl-1-[3-[4-(4-piperidyloxy)phenyl]propyl]imidazol-2-yl]-4-methyl-thieno[3,2-b]pyrrole hydrochloride]	< 0.1	< 10	–
CC(C)c1nc(-c2cc3sccc3n2C)n(CCOc2ccc(OC3CCNCC3)cc2)c1-c1ccccc1 [Example 48, 5-[4-isopropyl-5-phenyl-1-[2-[4-(4-piperidyloxy)phenoxy]ethyl]imidazol-2-yl]-4-methyl-thieno[3,2-b]pyrrole]	< 0.1	< 10	–
Cn1c(-c2nc(C3CCC3)cn2CCCc2ccc(OC3CCNCC3)cc2)cc2sccc21 [Example 49, 5-[4-cyclobutyl-1-[3-[4-(4-piperidyloxy)phenyl]propyl]imidazol-2-yl]-4-methyl-thieno[3,2-b]pyrrole hydrochloride]	–	< 10	–
Cn1c(-c2ncc(C3CCC3)n2CCCc2ccc(OC3CCNCC3)cc2)cc2sccc21 [Example 50, 5-[5-cyclobutyl-1-[3-[4-(4-piperidyloxy)phenyl]propyl]imidazol-2-yl]-4-methyl-thieno[3,2-b]pyrrole]	< 0.1	< 10	–
Cn1c(-c2nc(-c3ccccc3)cn2CCCc2ccc(OC3CCNCC3)cc2)cc2sccc21 [Example 51, 4-methyl-5-[4-phenyl-1-[3-[4-(4-piperidyloxy)phenyl]propyl]imidazol-2-yl]thieno[3,2-b]pyrrole hydrochloride]	< 0.1	–	–
CCc1cn(CCCc2ccc(OCC3CCNCC3)c(OCC3CCNCC3)c2)c(-c2cc3sccc3n2C)n1 [Example 52, 5-[1-[3-[3,4-bis(4-piperidylmethoxy)phenyl]propyl]-4-ethyl-imidazol-2-yl]-4-methyl-thieno[3,2-b]pyrrole dihydrochloride]	< 0.1	–	–
CCCc1cnc(-c2cc3sccc3n2C)n1CCOc1ccc(OC2CCNCC2)cc1 [Example 54, 4-methyl-5-[1-[2-[4-(4-piperidyloxy)phenoxy]ethyl]-5-propyl-imidazol-2-yl]thieno[3,2-b]pyrrole]	< 0.1	–	–
CCc1cnc(-c2cc3sccc3n2C)n1CCCc1ccc(OCC2CCNCC2)c(OCC2CCNCC2)c1 [Example 57, 5-[1-[3-[3,4-bis(4-piperidylmethoxy)phenyl]propyl]-5-ethyl-imidazol-2-yl]-4-methyl-thieno[3,2-b]pyrrole dihydrochloride]	< 0.1	< 10	–
CCc1cn(CCc2ccc(OC3CCNCC3)cc2)c(-c2cc3sccc3n2C)n1 [Example 58, 5-[4-ethyl-1-[2-[4-(4-piperidyloxy)phenyl]ethyl]imidazol-2-yl]-4-methyl-thieno[3,2-b]pyrrole]	< 0.1	–	–
Cn1c(-c2ncc(C3CCC3)n2CCCc2ccc(OCC3CCNC3)cc2)cc2sccc21 (stereo not shown) [Example 60, 5-[5-cyclobutyl-1-[3-[4-(pyrrolidin-3-ylmethoxy)phenyl]propyl]imidazol-2-yl]-4-methyl-thieno[3,2-b]pyrrole]	< 0.1	–	–
Cn1c(-c2ncc(C3CCC3)n2CCCc2ccc(OC3CCCNCC3)cc2)cc2sccc21 (stereo not shown) [Example 62, 5-[1-[3-[4-(azepan-4-yloxy)phenyl]propyl]-5-cyclobutyl-imidazol-2-yl]-4-methyl-thieno[3,2-b]pyrrole hydrochloride]	< 0.1	–	–
